This is an account of results in patent US20130183249A1, “Stimulus Sensitive Magnetic Nanocomposite Using Pyrene Polymer, and Contrast Medium Composition Containing the Nanocomposite” (INDUSTRY ACADEMIC COOPERATION FOUNDATION YOUNSEI UNIVERSITY, priority 2010, published 2013).

The test relates to NIH3T6.7 and MDA-MB-231 cells. The test is described as follows: Cell targeting ability and drug release by fluorescence microscopy. Conditions: 0.05 mM based on doxorubicin, 30 minutes incubation.

Description: For each of 12 wells, a cover glass was put on a bottom, 3×10^5 of each of NIH3T6.7 and MDA-MB-231 cells were dispensed on the glass per well to incubate for 12 hours, and washed with PBS three times. After the washing with PBS, 0.05 mM of a Herceptin-binding target-specific stimuli-sensitive nanocomposite based on doxorubicin, an IgG-binding stimuli-sensitive nanocomposite as a control group, and doxorubicin were each added to the cells, and incubated for 30 minutes. After the cells were washed with PBS, a dye for a cell nucleus (Hoechst dye) was added to the cells, reacted for 10 minutes and washed with PBS three times, and then the cover glass was fixed to a slide glass to observe microscope images.

For the compound `COc1cccc2c1C(=O)c1c(O)c3c(c(O)c1C2=O)C[C@@](O)(C(=O)CO)C[C@@H]3O[C@H]1C[C@H](N)[C@H](O)[C@H](C)O1` [Doxorubicin, doxorubicin], the “doxorubicin identified in cell nucleus (microscope images)” value is on record as “identified from a nucleus of the doxorubicin-treated cell without distinction of cells”.
